The subject of test [1] is rat. As to conditions: rat model; cited from earlier work.
Test [2] relates to rat. As to conditions: cited from earlier work.
Test [3] relates to rat. As to conditions: cited from earlier work. The source holds these as a separate data set.
In test [4] the target is T1, human orexin-2 receptor (Homo sapiens, UniProt O43614).
T1 construct: expressed in transfected cells; host or cells: CHO (Chinese hamster ovary) cells, kept under G418
T1 sequence (O43614 1-444): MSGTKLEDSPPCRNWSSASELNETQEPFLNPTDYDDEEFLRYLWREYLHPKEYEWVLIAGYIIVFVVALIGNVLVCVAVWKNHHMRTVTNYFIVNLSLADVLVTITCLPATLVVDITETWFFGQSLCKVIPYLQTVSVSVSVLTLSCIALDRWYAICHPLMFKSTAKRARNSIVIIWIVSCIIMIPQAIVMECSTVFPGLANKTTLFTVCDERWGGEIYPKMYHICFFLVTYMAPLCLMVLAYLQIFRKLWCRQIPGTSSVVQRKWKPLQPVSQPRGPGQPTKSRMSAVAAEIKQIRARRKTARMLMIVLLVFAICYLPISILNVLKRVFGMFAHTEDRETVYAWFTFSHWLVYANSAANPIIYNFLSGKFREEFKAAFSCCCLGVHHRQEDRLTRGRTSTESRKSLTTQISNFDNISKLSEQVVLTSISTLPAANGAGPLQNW
Nature of the test: FLIPR intracellular calcium assay, orexin receptor antagonistic activity (OX2). The format is cell-based. As to conditions: CHO cells expressing human orexin-2 receptor; 3 nM orexin-A; normalized to on-plate reference; *n = geometric mean from n values. Put shortly: (§1)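 CHO cells expressing human OX1 or OX2 receptor loaded with fluo-4 AM, then antagonist preincubated 10 min before 3 nM orexin-A. FLIPR peak calcium fluorescence compared with agonist-plus-vehicle response. IC50 normalized to an on-plate reference compound.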

In test [5] the target is T2, human orexin-1 receptor (Homo sapiens, UniProt O43613).
T2 construct: expressed in transfected cells; host or cells: CHO (Chinese hamster ovary) cells, kept under G418
T2 sequence (O43613 1-425): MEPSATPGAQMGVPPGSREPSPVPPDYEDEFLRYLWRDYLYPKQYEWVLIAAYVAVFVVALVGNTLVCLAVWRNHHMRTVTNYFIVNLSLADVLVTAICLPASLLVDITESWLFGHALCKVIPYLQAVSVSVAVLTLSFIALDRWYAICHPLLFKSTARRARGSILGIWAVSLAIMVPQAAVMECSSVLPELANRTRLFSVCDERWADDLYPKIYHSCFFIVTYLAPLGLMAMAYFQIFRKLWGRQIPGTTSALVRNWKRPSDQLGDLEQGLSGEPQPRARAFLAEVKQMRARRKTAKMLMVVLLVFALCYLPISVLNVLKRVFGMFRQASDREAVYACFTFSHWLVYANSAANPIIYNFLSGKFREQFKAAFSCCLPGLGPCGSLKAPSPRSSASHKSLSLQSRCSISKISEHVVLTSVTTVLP
Put plainly: FLIPR intracellular calcium assay, orexin receptor antagonistic activity (OX1). The format is cell-based. As to conditions: CHO cells expressing human orexin-1 receptor; 3 nM orexin-A; normalized to on-plate reference; *n = geometric mean from n values. Put shortly:
as §1
(In general: A change in cytosolic calcium serves as a functional read-out for many receptors and channels.)

Each structure is given as a SMILES string.

For orientation: IC50 means the midpoint of a concentration-inhibition curve.

For the compound `CNC(=O)[C@@H](c1ccccc1)N1CCc2cc(OC)c(OC)cc2[C@@H]1CCc1ccc(C(F)(F)F)cc1` [(2R)-2-{(1S)-6,7-dimethoxy-1-[2-(4-trifluoromethyl-phenyl)-ethyl]-3,4-dihydro-1H-isoquinolin-2-yl}-N-methyl-2-phenylacetamide], the memory function result in test [1] is given as “enhance memory function”. The “activity in a rat model of post-traumatic stress disorder” value in test [2] is given as “active”. In test [3], the “alertness, characterized by active wake and locomotion” value is listed as “decrease alertness”; the “time spent in both REM and NREM sleep” value was “dose-dependently increase”.

For the compound `COc1ccc(Oc2ccc(CN3C(=O)CSC3c3c(OC)cccc3OC)cc2)nc1` (stereo not drawn) [Example 286, 2-(2,6-Dimethoxy-phenyl)-3-[4-(5-methoxy-pyridin-2-yloxy)-benzyl]-thiazolidin-4-one], the results for the IC50 in test [4] and in test [5] were 52 nM and 553 nM, respectively.
